Data reported in patent US10695341B2, “Compositions and methods for treating endometriosis” (UNIVERSITY OF SOUTH FLORIDA, priority 2014, dated 2020).

Assays:
[1] = test system: Life-extended endometriotic (IE) cells; assay: Crystal violet growth/survival of life-extended endometriotic (IE) cells treated with chloroquine; format: cell-based, human; conditions: 25 μM chloroquine, up to about 96 hours, crystal violet absorbance
Method: Life-extended endometriotic (IE) cells were treated with 25 μM chloroquine for up to about 96 hours. Cells were then stained with crystal violet and measured for overall growth at an absorbance of […], using a Bioteck plate reader.

LC3-II = LC3-II levels in IE cells after chloroquine; format: cell-based, human; conditions: chloroquine treatment

CCN(CC)CCCC(C)Nc1ccnc2cc(Cl)ccc12 (centres unmarked) [chloroquine]
cellular survival [1]: dramatically inhibited
LC3-II levels (LC3-II): marked increase
